The record followed here is patent US10759781B2, “Substituted guanidine derivatives” (UBE INDUSTRIES, LTD., priority 2015, dated 2020).

The target in assay [1] is T1, Human VAP-1 enzyme (Homo sapiens, UniProt Q16853).
T1 construct: purchased R&D Systems, Inc
T1 sequence (Q16853 1-763): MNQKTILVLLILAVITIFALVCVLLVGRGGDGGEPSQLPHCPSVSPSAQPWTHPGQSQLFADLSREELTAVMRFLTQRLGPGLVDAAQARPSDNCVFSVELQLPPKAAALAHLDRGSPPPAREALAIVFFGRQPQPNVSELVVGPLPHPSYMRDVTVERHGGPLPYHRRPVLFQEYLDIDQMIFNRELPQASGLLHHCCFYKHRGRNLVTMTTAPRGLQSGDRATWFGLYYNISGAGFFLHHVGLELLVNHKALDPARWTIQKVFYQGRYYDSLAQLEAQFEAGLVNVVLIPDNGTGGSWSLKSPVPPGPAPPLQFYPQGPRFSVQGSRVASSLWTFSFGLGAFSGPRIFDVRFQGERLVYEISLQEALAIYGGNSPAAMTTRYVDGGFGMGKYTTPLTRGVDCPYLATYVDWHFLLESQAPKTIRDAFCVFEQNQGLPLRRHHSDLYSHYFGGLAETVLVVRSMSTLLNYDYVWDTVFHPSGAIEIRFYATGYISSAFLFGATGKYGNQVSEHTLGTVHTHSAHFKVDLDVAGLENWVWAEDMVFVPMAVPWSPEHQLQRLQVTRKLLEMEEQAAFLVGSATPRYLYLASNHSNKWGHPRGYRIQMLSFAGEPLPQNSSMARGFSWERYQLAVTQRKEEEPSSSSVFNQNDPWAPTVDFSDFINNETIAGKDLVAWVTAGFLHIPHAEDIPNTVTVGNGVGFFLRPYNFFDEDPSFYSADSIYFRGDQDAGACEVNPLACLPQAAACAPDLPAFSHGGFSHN
The experiment in a line: Human VAP-1 enzyme inhibition test. The assay is classed as biochemical. The following applies: 1 h; compound 30 nM; 14C-benzylamine 100 μM; read-out: inhibition ratio (human VAP-1 enzyme). In outline:
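Activity measured as radioactive oxidation product of 14C-benzylamine (100 μM final), extracted with toluene/ethyl acetate after citric acid stop and scintillation-counted. Enzyme (recombinant human VAP-1) first exposed to compound 20 min at room temperature, reaction then 1 h at 37 °C. Percent inhibition versus DMSO control.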

For assay [2], the target named is T2, Rat Plasma VAP-1 (Rattus norvegicus, UniProt O08590).
T2 construct: from tissue; host or cells: plasma of SD male rats (7-12 weeks old) after oral dosing
T2 sequence (O08590 28-763 limits assumed): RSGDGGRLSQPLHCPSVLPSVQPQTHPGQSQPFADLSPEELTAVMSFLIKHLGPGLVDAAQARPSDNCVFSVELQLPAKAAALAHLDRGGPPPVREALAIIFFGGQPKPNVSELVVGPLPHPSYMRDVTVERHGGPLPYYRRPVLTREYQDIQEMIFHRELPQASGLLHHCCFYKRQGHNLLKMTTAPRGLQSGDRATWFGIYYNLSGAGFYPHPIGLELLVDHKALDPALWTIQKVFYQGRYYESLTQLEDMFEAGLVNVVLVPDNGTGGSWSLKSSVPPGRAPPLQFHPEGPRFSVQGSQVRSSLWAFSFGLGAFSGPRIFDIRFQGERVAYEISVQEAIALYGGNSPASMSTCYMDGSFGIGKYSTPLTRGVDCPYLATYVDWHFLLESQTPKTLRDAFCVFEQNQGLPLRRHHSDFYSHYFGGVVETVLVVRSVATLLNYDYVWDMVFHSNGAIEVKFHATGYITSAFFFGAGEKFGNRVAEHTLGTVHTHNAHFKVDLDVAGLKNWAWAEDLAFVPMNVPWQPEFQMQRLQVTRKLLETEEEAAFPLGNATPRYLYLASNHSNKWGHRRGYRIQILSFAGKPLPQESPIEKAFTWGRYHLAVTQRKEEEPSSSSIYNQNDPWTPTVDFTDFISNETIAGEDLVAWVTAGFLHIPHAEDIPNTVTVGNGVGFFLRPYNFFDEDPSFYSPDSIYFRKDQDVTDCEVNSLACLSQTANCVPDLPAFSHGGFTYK
The experiment in a line: (Ex vivo) rat plasma VAP-1 inhibition test after oral administration of the compound. The format is in vivo. As to conditions: 3 hours after oral administration, SD male rats, read-out: inhibition ratio (plasma VAP-1, ex vivo). The essentials:
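Male SD rats, 7–12 weeks, non-fasted, dosed orally at 0.3–10 mg/kg; jugular blood taken predose and 3, 8 and 24 h after dosing. Plasma incubated with 2.5 μM 14C-benzylamine for 3 h at 37 °C; extracted product counted by scintillation. Inhibition expressed relative to each animal's predose plasma activity.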

Regarding `N=C(N)NC(=O)OCc1cccc(-c2cnc(N3CCC(=NOCc4cn[nH]c4)CC3)nc2)c1F` [Example 173, 3-[2-(4-{[(1H-pyrazol-4-yl)methoxy]imino}piperidin-1-yl)pyrimidin-5-yl]-2-fluorobenzyl carbamimidoylcarbamate], the inhibition at 0.03 µM in assay [1] was no less than 50%. For the same molecule, the inhibition in vivo at 0.3 mg/kg in assay [2] is no less than 50%.

As to `Cn1cc(CON=C2CCN(c3ncc(-c4cccc(COC(=O)NC(=N)N)c4F)cn3)CC2)cn1` [Example 174, 2-Fluoro-3-[2-(4-{[(1-methyl-1H-pyrazol-4-yl)methoxy]imino}piperidin-1-yl)pyrimidin-5-yl]benzyl carbamimidoylcarbamate], in assay [1], the inhibition at 0.03 µM was no less than 50%. Moreover, in assay [2], the inhibition in vivo at 0.3 mg/kg was no less than 50%.

On to `N=C(N)NC(=O)OCc1cccc(-c2cnc(N3CCC(=NOCCn4cccn4)CC3)nc2)c1F` [Example 175, 3-[2-(4-{[2-(1H-pyrazol-1-yl)ethoxy]imino}piperidin-1-yl)pyrimidin-5-yl]-2-fluorobenzyl carbamimidoylcarbamate], for which the inhibition at 0.03 µM in assay [1] is no less than 50%. Further, the inhibition in vivo at 0.3 mg/kg in assay [2] was no less than 50%.

As for `N=C(N)NC(=O)OCc1cccc(-c2cnc(N3CCC(=NOCc4ccncc4)CC3)nc2)c1F` [Example 176, 2-Fluoro-3-(2-{4-[(pyridin-4-ylmethoxy)imino]piperidin-1-yl}pyrimidin-5-yl)benzyl carbamimidoylcarbamate], in assay [1], the inhibition at 0.03 µM is no less than 50%. The inhibition in vivo at 0.3 mg/kg in assay [2] was no less than 50%.

In the case of `N=C(N)NC(=O)OCc1cccc(-c2cnc(N3CCC(=NOCCN4C(=O)CCC4=O)CC3)nc2)c1F` [Example 177, 3-[2-(4-{[2-(2,5-Dioxopyrrolidin-1-yl)ethoxy]imino}piperidin-1-yl)pyrimidin-5-yl]-2-fluorobenzyl carbamimidoylcarbamate], the inhibition at 0.03 µM in assay [1] is no less than 50%. Also, in assay [2], the inhibition in vivo at 0.3 mg/kg is no less than 50%.

For `N=C(N)NC(=O)OCc1cccc(-c2cnc(N3CCC(=NOCCN4CCCC4=O)CC3)nc2)c1F` [Example 178, 2-Fluoro-3-[2-(4-{[2-(2-oxopyrrolidin-1-yl)ethoxy]imino}piperidin-1-yl)pyrimidin-5-yl]benzyl carbamimidoylcarbamate], in assay [1], the inhibition at 0.03 µM was no less than 50%. In addition, in assay [2], the inhibition in vivo at 0.3 mg/kg was no less than 50%.

In the case of `N=C(N)NC(=O)OCc1cccc(-c2cnc(N3CCC(=NOc4cncnc4)CC3)nc2)c1F` [Example 182, 2-Fluoro-3-(2-{4-[(pyrimidin-5-yloxy)imino]piperidin-1-yl}pyrimidin-5-yl)benzyl carbamimidoylcarbamate], in assay [1], the inhibition at 0.03 µM is no less than 50%. Also, the inhibition in vivo at 0.3 mg/kg in assay [2] is no less than 50%.

`N=C(N)NC(=O)OCc1cccc(-c2cnc(N3CCC(=NOc4ncccn4)CC3)nc2)c1F` [Example 183, 2-Fluoro-3-(2-{4-[(pyrimidin-2-yloxy)imino]piperidin-1-yl}pyrimidin-5-yl)benzyl carbamimidoylcarbamate]: the inhibition at 0.03 µM in assay [1] was no less than 50%. Besides, the inhibition in vivo at 0.3 mg/kg in assay [2] was no less than 50%.
